Data published in patent US7803797B2, “Substituted arylcyclopentenes as therapeutic agents” (Allergan, Inc., priority 2008, dated 2010).

What was measured:
Type in all cases: in vivo
normotensive dogs = test: Intraocular pressure (IOP) reduction in normotensive dogs
Description: Compounds 14a, 14b, 16a, 16b. 22a, 22b, 33a, 33b, 34a, 34b, 35a, 35b, 46a, 46b, 51a, 51 b, 58a, 58b, 69a, 69b, 70a and 70b from above are tested in vivo to measure its ability to reduce intraocular pressure. Compound 14a is tested in normotensive dogs.

[1] = tested on: laser-induced hypertensive monkeys; test: Intraocular pressure (IOP) reduction in laser-induced hypertensive monkeys
[2] = tested on: lashes and adjacent hairs of the eyelids; test: Clinical observation of lashes in glaucoma patients treated in one eye; settings: glaucoma patients treated in only one eye
Description: In the course of treating patients having glaucoma, treatment may only be appropriate in one eye. […] The lash appearance on the lids of the treated eyes would have appeared quite attractive if it represented a bilateral phenomenon. As a result of its asymmetric nature, the long lashes on one side could be construed as disturbing from a cosmetic standpoint. A systemic examination was preformed as a result of the asymmetric phenomenon. It soon became apparent that this altered appearance was not an isolated finding. […] Definite differences could be identified to varying degrees in the lashes and adjacent hairs of all patients who were taking the drug on a unilateral basis for longer than 6 months.
The changes in the lashes were apparent on gross inspection in several patients once attention was focused on the issue. In those with light colored hair and lashes, the differences were only seen easily with the aid of the high magnification and lighting capabilities of the slit lamp biomicroscope. In the course of glaucoma follow-up examination, attention is generally immediately focused on the eye itself. As a result of the high power magnification needed only one eye is seen at a time and the eye is seen at a high enough power that the lashes are not in focus. […]

SMILES	intraocular pressure (IOP) change from baseline (normotensive dogs)	IOP change from baseline [1]	lash appearance, treated eye versus non-treated eye [2]
O=C(OCCN1CCOCC1)c1ccc(CCC[C@@H]2[C@@H](COc3cc(Cl)cc(CO)c3)CC[C@H]2Cl)s1 [51 b]	decreases from baseline	decreases from baseline	
O=C(CCC/C=C\C[C@@H]1[C@@H](COc2cc(Cl)cc(CCO)c2)[C@H](O)C[C@H]1Cl)OCCO [Compound 14a]	decreases from baseline	decreases from baseline	
O=C(CCC/C=C\C[C@@H]1[C@@H](COc2cc(Cl)cc(CCO)c2)[C@H](O)C[C@H]1Cl)OCCN1CCOCC1 [Compound 14b]	decreases from baseline	decreases from baseline	
CC(=O)OCCc1cc(Cl)cc(OC[C@@H]2[C@@H](C/C=C\CCCC(=O)OCCO)[C@H](Cl)C[C@H]2O)c1 [Compound 16a]	decreases from baseline	decreases from baseline	
CC(=O)OCCc1cc(Cl)cc(OC[C@@H]2[C@@H](C/C=C\CCCC(=O)OCCN3CCOCC3)[C@H](Cl)C[C@H]2O)c1 [Compound 16b]	decreases from baseline	decreases from baseline	
COCc1cc(Cl)cc(OC[C@@H]2[C@@H](C/C=C\CCCC(=O)OCCO)[C@H](Cl)C[C@H]2O)c1 [Compound 22a]	decreases from baseline	decreases from baseline	
COCc1cc(Cl)cc(OC[C@@H]2[C@@H](C/C=C\CCCC(=O)OCCN3CCOCC3)[C@H](Cl)C[C@H]2O)c1 [Compound 22b]	decreases from baseline	decreases from baseline	
O=C(OCCO)c1ccc(CCC[C@@H]2[C@@H](COc3cc(Cl)cc(Cl)c3)[C@H](O)C[C@H]2Cl)s1 [Compound 33a]	decreases from baseline	decreases from baseline	
O=C(OCCN1CCOCC1)c1ccc(CCC[C@@H]2[C@@H](COc3cc(Cl)cc(Cl)c3)[C@H](O)C[C@H]2Cl)s1 [Compound 33b]	decreases from baseline	decreases from baseline	
Cc1cc(C)cc(OC[C@@H]2[C@@H](CCCc3ccc(C(=O)OCCO)s3)[C@H](Cl)C[C@H]2O)c1 [Compound 35a]	decreases from baseline	decreases from baseline	
Cc1cc(C)cc(OC[C@@H]2[C@@H](CCCc3ccc(C(=O)OCCN4CCOCC4)s3)[C@H](Cl)C[C@H]2O)c1 [Compound 35b]	decreases from baseline	decreases from baseline	
O=C(OCCO)c1ccc(CCC[C@H]2C(=O)CC[C@@H]2COc2cc(Cl)cc(CO)c2)s1 [Compound 46a]	decreases from baseline	decreases from baseline	
O=C(OCCN1CCOCC1)c1ccc(CCC[C@H]2C(=O)CC[C@@H]2COc2cc(Cl)cc(CO)c2)s1 [Compound 46b]	decreases from baseline	decreases from baseline	
O=C(OCCO)c1ccc(CCC[C@@H]2[C@@H](COc3cc(Cl)cc(CO)c3)CC[C@H]2Cl)s1 [Compound 51a]	decreases from baseline	decreases from baseline	
N#C[C@@H]1C[C@@H](O)[C@H](COc2cc(Cl)cc(Cl)c2)[C@H]1CCCc1ccc(C(=O)OCCO)s1 [Compound 58a]	decreases from baseline	decreases from baseline	
N#C[C@@H]1C[C@@H](O)[C@H](COc2cc(Cl)cc(Cl)c2)[C@H]1CCCc1ccc(C(=O)OCCN2CCOCC2)s1 [Compound 58b]	decreases from baseline	decreases from baseline	
O=C(OCCO)c1ccc(CCCC2=CC[C@@H](O)[C@@H]2COc2cc(Cl)cc(Cl)c2)s1 [Compound 69a]	decreases from baseline	decreases from baseline	
O=C(OCCN1CCOCC1)c1ccc(CCCC2=CC[C@@H](O)[C@@H]2COc2cc(Cl)cc(Cl)c2)s1 [Compound 69b]	decreases from baseline	decreases from baseline	
O=C(OCCO)c1ccc(CCC[C@@H]2[C@@H](COc3cc(Cl)cc(Cl)c3)[C@H](O)C[C@H]2F)s1 [Compound 70a]	decreases from baseline	decreases from baseline	
O=C(OCCN1CCOCC1)c1ccc(CCC[C@@H]2[C@@H](COc3cc(Cl)cc(Cl)c3)[C@H](O)C[C@H]2F)s1 [Compound 70b]	decreases from baseline	decreases from baseline	
CCNC(=O)CCC/C=C\C[C@@H]1[C@@H](/C=C/[C@@H](O)CCc2ccccc2)[C@H](O)C[C@@H]1O [bimatoprost]			longer, thicker, and fuller in the treated eye than in the non-treated eye
